{"source": "patent US11505521B2", "about": "(Biothea Pharma, Inc., priority 2018, dated 2022)", "key": {"[1]": {"method": "The stability of the pharmaceutical compositions of Example 3 were tested. The stability studies were conducted on packaged epinephrine salts at 25° C./RH 60% and 40° C./RH 75% conditions, as well as samples without packaging and exposed to light (4500 Lux) for one month. The appearance, assay content, and related substances were examined at 5, 7, 14 and 30 days.\nThe assay content was tested using Sartorius balances (Model SQP), an INESA pH meter (Model PHS-3E), a Thermo HPLC (UltiMate 3000 System, UV Wavelength: 205 nm), and Phenomenex Luna columns (5 μm C18 (2), 4.6×250 mm). The column temperature was 40° C., and the autosampler temperature was room temperature. The injection volume was 5 μL.\nMobile Phase A was prepared by weighing 4.0 g tetramethylammonium bisulfate (MERYER, Batch No. 77957139) and 1.1 sodium 1-heptasulfonate (Admas-beta, Batch No. P1343755), and transferring the materials to a flask. 2 mL of 0.1 mol/L EDTA solution (Brand: Sinopharm Chemical Reagent Co., Ltd., Batch No. 20150410) was added to the flask and the volume was adjusted to 950 mL using water. The solution was mixed and adjusted to a pH of 3.5 with 0.1N sodium hydroxide solution (Brand: Enox, Batch No. 20161201). Mobile Phase B was prepared using methanol. The isocratic elution was used in a proportion of A/B of 85/15. The run time was 10 minutes.\nThe assay content was analyzed by dissolving 20 mg of each sample to be examined in 50 mL of Mobile Phase A (0.4 mg/mL) as assay test solution. The sample was used and tested right after it was ready and was protected from light.\nThe purity was tested using Sartorius balances (Model SQP), an INESA pH meter (Model PHS-3E), a Thermo HPLC (UltiMate 3000 System, UV Wavelength: 205 nm), and PhenomenexSynergi columns (4 μm Polar-RP 80 A 250×4.6 mm). The column temperature was 30° C., and the autosampler temperature was room temperature. The injection volume was 5 μL.\nMobile Phase A was prepared by weighing 1.136 g of potassium dihydrogen orthophosphate (Brand: CNW, Batch No. A1040040) and 1.74 g of dipotassium hydrogen orthophosphate (Brand: Ourchem, Batch No. 20160219) and transferring into 1000 mL of water. The pH was adjusted to 3.0±0.05 with orthophosphoric acid (Brand: Ourchem, Batch No. 4112K060). The solution was filtered through a 0.45 μm membrane and degassed. Mobile Phase B was prepared using methanol. The run time was 50 minutes.\nThe purity was analyzed by dissolving 10 mg of each sample to be examined in 25 mL of Mobile Phase A (0.4 mg/mL) as purity and related substance test solution. The sample was used and tested right after it was ready and was protected from light."}, "[2]": {"method": "The procedure for the various conditions is set forth below.\nStandard: 20 mg of sample was weighed and dissolved in a 50 mL volumetric flask, diluted to the required volume with diluents, and mixed well.\nAcid Degradation: 20 mg of sample was weighed and placed in a 50 mL volumetric flask. 2 mL of 2.0 mol/L HCl was added to the flask. The flask was placed in a water bath at 40° C. for 7 days.\nAlkaline Degradation: 20 mg of sample was weighed and placed in a 50 mL volumetric flask. 2 mL of 0.05 mol/L NaOH was added to the flask. The flask was stored at room temperature for 24 hours.\nOxidation: 20 mg of sample was weighed and placed in a 50 mL volumetric flask. 2 mL of 10% H2O2 was added to the flask. The flask was placed in a water bath at 40° C. for 44 hours.\nThermal Degradation (solution, 80° C.): 20 mg of sample was weighed and dissolved in a 50 mL volumetric flask, diluted to the required volume with diluents, and mixed well. The flask was placed in a water bath at 80° C. for 46 hours.\nThermal Degradation (solid, 80° C.): 120 mg of sample was placed in an oven at 80° C. for 7 days.\nThe appearance and purity of the samples were test.", "remark": "listed apart in the source"}, "[3]": {"conditions": "light 4500 Lux, under air, 0 days"}, "[4]": {"conditions": "light 4500 Lux, under air, 5 days"}, "[5]": {"conditions": "light 4500 Lux, under air, 7 days"}, "[6]": {"conditions": "light 4500 Lux, under air, 14 days"}, "[7]": {"conditions": "light 4500 Lux, under air, 30 days"}, "[8]": {"conditions": "Acid Degradation: 2.0 mol/L HCl, 40° C., 7 days"}, "[9]": {"conditions": "Alkaline Degradation: 0.05 mol/L NaOH, room temperature, 24 hours"}, "[10]": {"conditions": "Oxidation: 10% H2O2, 40° C., 44 hours"}, "[11]": {"conditions": "Thermal Degradation (solid): 80° C., 7 days"}, "[12]": {"conditions": "Thermal Degradation (solution): 80° C., 46 hours"}}, "note": "Read-outs that look alike come from different tables or passages of the source.", "data": [{"smiles": "CNC[C@H](O)c1ccc(O)c(O)c1", "note": "[epinephrine malonate]", "values": [{"measurement": "Appearance", "setting": "[1]; 25° C./60% RH, 0 days", "result": "Off-white"}, {"measurement": "Content (%)", "setting": "[1]; 25° C./60% RH, 0 days", "result": 100.00, "unit": "%"}, {"measurement": "Related substance (%)", "setting": "[1]; 25° C./60% RH, 0 days", "result": 0.01, "unit": "%"}, {"measurement": "Appearance", "setting": "[1]; 25° C./60% RH, 5 days", "result": "Off-white"}, {"measurement": "Content (%)", "setting": "[1]; 25° C./60% RH, 5 days", "result": 99.94, "unit": "%"}, {"measurement": "Related substance (%)", "setting": "[1]; 25° C./60% RH, 5 days", "result": 0.02, "unit": "%"}, {"measurement": "Appearance", "setting": "[1]; 25° C./60% RH, 7 days", "result": "Off-white"}, {"measurement": "Content (%)", "setting": "[1]; 25° C./60% RH, 7 days", "result": 99.62, "unit": "%"}, {"measurement": "Related substance (%)", "setting": "[1]; 25° C./60% RH, 7 days", "result": 0.02, "unit": "%"}, {"measurement": "Appearance", "setting": "[1]; 25° C./60% RH, 14 days", "result": "Off-white"}, {"measurement": "Content (%)", "setting": "[1]; 25° C./60% RH, 14 days", "result": 98.81, "unit": "%"}, {"measurement": "Related substance (%)", "setting": "[1]; 25° C./60% RH, 14 days", "result": 0.05, "unit": "%"}, {"measurement": "Appearance", "setting": "[1]; 25° C./60% RH, 30 days", "result": "Off-white"}, {"measurement": "Content (%)", "setting": "[1]; 25° C./60% RH, 30 days", "result": 100.64, "unit": "%"}, {"measurement": "Related substance (%)", "setting": "[1]; 25° C./60% RH, 30 days", "result": 0.05, "unit": "%"}, {"measurement": "Appearance", "setting": "[1]; 40° C./75% RH, 0 days", "result": "Off-white"}, {"measurement": "Content (%)", "setting": "[1]; 40° C./75% RH, 0 days", "result": 100.00, "unit": "%"}, {"measurement": "Related substance (%)", "setting": "[1]; 40° C./75% RH, 0 days", "result": 0.01, "unit": "%"}, {"measurement": "Appearance", "setting": "[1]; 40° C./75% RH, 5 days", "result": "Off-white"}, {"measurement": "Content (%)", "setting": "[1]; 40° C./75% RH, 5 days", "result": 100.25, "unit": "%"}, {"measurement": "Related substance (%)", "setting": "[1]; 40° C./75% RH, 5 days", "result": 0.03, "unit": "%"}, {"measurement": "Appearance", "setting": "[1]; 40° C./75% RH, 7 days", "result": "Off-white"}, {"measurement": "Content (%)", "setting": "[1]; 40° C./75% RH, 7 days", "result": 101.64, "unit": "%"}, {"measurement": "Related substance (%)", "setting": "[1]; 40° C./75% RH, 7 days", "result": 0.02, "unit": "%"}, {"measurement": "Appearance", "setting": "[1]; 40° C./75% RH, 14 days", "result": "Off-white"}, {"measurement": "Content (%)", "setting": "[1]; 40° C./75% RH, 14 days", "result": 99.63, "unit": "%"}, {"measurement": "Related substance (%)", "setting": "[1]; 40° C./75% RH, 14 days", "result": 0.08, "unit": "%"}, {"measurement": "Appearance", "setting": "[1]; 40° C./75% RH, 30 days", "result": "Off-white"}, {"measurement": "Content (%)", "setting": "[1]; 40° C./75% RH, 30 days", "result": 99.87, "unit": "%"}, {"measurement": "Related substance (%)", "setting": "[1]; 40° C./75% RH, 30 days", "result": 0.11, "unit": "%"}, {"measurement": "Appearance", "setting": "[1]; [3]", "result": "Off-white"}, {"measurement": "Content (%)", "setting": "[1]; [3]", "result": 100.00, "unit": "%"}, {"measurement": "Related substance (%)", "setting": "[1]; [3]", "result": 0.01, "unit": "%"}, {"measurement": "Appearance", "setting": "[1]; [4]", "result": "Off-white"}, {"measurement": "Content (%)", "setting": "[1]; [4]", "result": 99.81, "unit": "%"}, {"measurement": "Related substance (%)", "setting": "[1]; [4]", "result": 0.03, "unit": "%"}, {"measurement": "Appearance", "setting": "[1]; [5]", "result": "Off-white"}, {"measurement": "Content (%)", "setting": "[1]; [5]", "result": 98.76, "unit": "%"}, {"measurement": "Related substance (%)", "setting": "[1]; [5]", "result": 0.03, "unit": "%"}, {"measurement": "Appearance", "setting": "[1]; [6]", "result": "Off-white"}, {"measurement": "Content (%)", "setting": "[1]; [6]", "result": 99.83, "unit": "%"}, {"measurement": "Related substance (%)", "setting": "[1]; [6]", "result": 0.06, "unit": "%"}, {"measurement": "Appearance", "setting": "[1]; [7]", "result": "Off-white"}, {"measurement": "Content (%)", "setting": "[1]; [7]", "result": 100.64, "unit": "%"}, {"measurement": "Related substance (%)", "setting": "[1]; [7]", "result": 0.04, "unit": "%"}, {"measurement": "Appearance", "setting": "[2]; [8]", "result": "Colorless liquid"}, {"measurement": "Purity", "setting": "[2]; [8]", "result": 91.96, "unit": "%"}, {"measurement": "Appearance", "setting": "[2]; [9]", "result": "Brown liquid"}, {"measurement": "Purity", "setting": "[2]; [9]", "result": 98.68, "unit": "%"}, {"measurement": "Appearance", "setting": "[2]; [10]", "result": "Colorless liquid"}, {"measurement": "Purity", "setting": "[2]; [10]", "result": 97.04, "unit": "%"}, {"measurement": "Appearance", "setting": "[2]; Standard (no degradation)", "result": "Off-white powder"}, {"measurement": "Purity", "setting": "[2]; Standard (no degradation)", "result": 99.89, "unit": "%"}, {"measurement": "Appearance", "setting": "[2]; [11]", "result": "Off-white powder"}, {"measurement": "Purity", "setting": "[2]; [11]", "result": 99.10, "unit": "%"}, {"measurement": "Appearance", "setting": "[2]; [12]", "result": "Colorless liquid"}, {"measurement": "Purity", "setting": "[2]; [12]", "result": 96.04, "unit": "%"}]}]}
